Assay results published in patent US8460858B2, “Near-infrared-ray absorbing material containing cyanine compound, and cyanine compound” (Adeka Corporation, priority 2008, dated 2013).
Structures can show the parent of a compound that is named as a salt.

Tests used:
[1] = Solubility measurement in methyl ethyl ketone (MEK); type: physicochemical; conditions: concentration when the solute completely dissolved
Method: The solubility measurement was conducted as follows: the compound to be tested was weighed; methyl ethyl ketone (MEK) was slowly added thereto; when the solute completely dissolved, the solution was weighed; and the concentration of the test compound in the solution was determined by calculation.

[2] = Decomposition point measurement (TG/DTA); type: physicochemical; conditions: temperature at which the mass started to decrease, differential thermal analysis, temperature-rise rate 10° C./minute
Method: The UV-Visible absorption spectra measurement was conducted by preparing a chloroform solution of each compound to be tested, and employing a UV-Vis-NIR spectrophotometer (“V-570”; product from JASCO Corporation). The decomposition point measurement was conducted using a thermogravimetry differential thermal analyzer (“TG/DTA 6200”; product from Seiko Instruments Inc.), to find the temperature at which the mass started to decrease in differential thermal analysis at a temperature-rise rate of 10° C./minute.

Compound	Solubility (MEK) [1]	Decomposition Point [2]
CN1/C(=C/C=C/C=C/C=C/C=C/C2=[N+](C)c3ccc4ccccc4c3C2(Cc2ccccc2)Cc2ccccc2)C(Cc2ccccc2)(Cc2ccccc2)c2c1ccc1ccccc21 [Example 1-7, Bis(Trifluoromethane Sulfone)Imide Salt of Compound No. 4]	3.71 wt %	266.5 °C
CN1/C(=C/C=C/C=C/C=C/C=C/C2=[N+](C)c3ccc4ccccc4c3C23CCCCC3)C2(CCCCC2)c2c1ccc1ccccc21 [Example 1-11, bis(trifluoromethane sulfone)imide salt of Compound No. 64]	1.46 wt %	280.7 °C
O=S(=O)(c1ccc2c(c1)[S][Cu-]1([S]2)[S]c2ccc(S(=O)(=O)N3CCOCC3)cc2[S]1)N1CCOCC1 [Example 1-8, Quencher (1-1) Salt of Compound No. 4]	3.69 wt %	258.8 °C
CN1/C(=C/C=C/C=C/C=C/C=C/C2=[N+](C)c3ccc4ccccc4c3C2(Cc2ccccc2)Cc2ccccc2)C(Cc2ccccc2)(Cc2ccccc2)c2c1ccc1ccccc21 [Example 1-6, Tetrafluoroborate Salt of Compound No. 4]	1.62 wt %	192.6 °C
CN1/C(=C/C=C/C=C/C=C/C=C/C2=[N+](C)c3c(c4ccccc4c4ccccc34)C2(C)C)C(C)(C)c2c1c1ccccc1c1ccccc21 [1-4, reference compound]	0.28 wt %	261.3 °C
CN1/C(=C/C=C/C=C/C=C/C=C/C2=[N+](C)c3ccc4ccccc4c3C2(C)Cc2ccccc2)C(C)(Cc2ccccc2)c2c1ccc1ccccc21 (stereo not shown) [Example 1-3, Tetrafluoroborate Salt of Compound No. 3]	0.97 wt %	180.5 °C
CN1/C(=C/C=C/C=C/C=C/C=C/C2=[N+](C)c3ccccc3C2(C)C)C(C)(C)c2ccccc21 [Example 1-10, bis(trifluoromethane sulfone)imide salt of Compound No. 61]	0.73 wt %	238.4 °C
O=S(=O)(c1ccc2c(c1)[S][Cu-]1([S]2)[S]c2ccc(S(=O)(=O)N3CCOCC3)cc2[S]1)N1CCOCC1 [1-3, reference compound]	0.20 wt %	198.7 °C
CN1/C(=C/C=C/C=C/C=C/C=C/C2=[N+](C)c3ccc4ccccc4c3C2(C)Cc2ccccc2)C(C)(Cc2ccccc2)c2c1ccc1ccccc21 (stereo not shown) [Example 1-4, Bis(Trifluoromethane Sulfone)Imide Salt of Compound No. 3]	0.98 wt %	255.8 °C
O=S(=O)(c1ccc2c(c1)[S][Cu-]1([S]2)[S]c2ccc(S(=O)(=O)N3CCOCC3)cc2[S]1)N1CCOCC1 [Example 1-5, Quencher (1-1) Salt of Compound No. 3]	0.39 wt %	249.1 °C
CN1/C(=C/C=C/C=C/C=C/C=C/C2=[N+](C)c3ccccc3C2(Cc2ccccc2)Cc2ccccc2)C(Cc2ccccc2)(Cc2ccccc2)c2ccccc21 [Example 1-2, Bis(Trifluoromethane Sulfone)Imide Salt of Compound No. 2]	2.34 wt %	248.6 °C
CN1/C(=C/C=C/C=C/C=C/C=C/C2=[N+](C)c3ccccc3C2(Cc2ccccc2)Cc2ccccc2)C(Cc2ccccc2)(Cc2ccccc2)c2ccccc21 [Example 1-1, Tetrafluoroborate Salt of Compound No. 2]	0.16 wt %	238.3 °C
CN1/C(=C/C=C/C=C/C=C/C=C/C2=[N+](C)c3c(c4ccccc4c4ccccc34)C2(C)C)C(C)(C)c2c1c1ccccc1c1ccccc21 [Example 1-12, bis(trifluoromethane sulfone)imide salt of Compound No. 105]	1.13 wt %	291.5 °C
CCCN1/C(=C/C=C/C=C/C=C/C=C/C2=[N+](CCC)c3ccc4ccccc4c3C2(Cc2ccccc2)Cc2ccccc2)C(Cc2ccccc2)(Cc2ccccc2)c2c1ccc1ccccc21 [Example 1-9, Tetrafluoroborate Salt of Compound No. 6]	1.36 wt %	193.8 °C
